According to patent publication US7687517B2, “3,9-Diazabicyclo [3.3.1] nonane derivatives and their use as monoamine neurotransmitter re-uptake inhibitors” (Neurosearch A/S, priority 2006, dated 2010):
Counter-ions that a name gives are not always drawn. Like-named read-outs stand apart in the source and are kept apart here.

Assays:
[1] = target: T1, reuptake of serotonine (5-HT) in synaptosomes (Rattus norvegicus, UniProt P31652); experiment: Inhibition of serotonin reuptake in synaptosomes; type: biochemical
T1 construct: in synaptosomes as described in WO 97/16451; from tissue
Description: A number of compounds were tested for their ability to inhibit the reuptake of the monoamine neurotransmitters dopamine (DA) noradrenaline (NA) and serotonine (5-HT) in synaptosomes as described in WO 97/16451.
The test values are given as IC50 (the concentration (μM) of the test substance which inhibits the specific binding of ^3H-DA, ^3H-NA, or ^3H-5-HT by 50%).

[2] = target: T2, reuptake of noradrenaline (NA) in synaptosomes (Rattus norvegicus, UniProt Q63380); experiment: Inhibition of noradrenaline reuptake in synaptosomes; type: biochemical
T2 construct: in synaptosomes as described in WO 97/16451; from tissue

[3] = target: T3, reuptake of dopamine (DA) in synaptosomes (Rattus norvegicus, UniProt P23977); experiment: Inhibition of dopamine reuptake in synaptosomes; type: biochemical; details: 3H-DA, read-out: DA-uptake IC50
T3 construct: in synaptosomes as described in WO 97/16451; from tissue

[4] = synaptosomes, 3H-NA, read-out: NA-uptake IC50

T2 sequence (Q63380 1-617): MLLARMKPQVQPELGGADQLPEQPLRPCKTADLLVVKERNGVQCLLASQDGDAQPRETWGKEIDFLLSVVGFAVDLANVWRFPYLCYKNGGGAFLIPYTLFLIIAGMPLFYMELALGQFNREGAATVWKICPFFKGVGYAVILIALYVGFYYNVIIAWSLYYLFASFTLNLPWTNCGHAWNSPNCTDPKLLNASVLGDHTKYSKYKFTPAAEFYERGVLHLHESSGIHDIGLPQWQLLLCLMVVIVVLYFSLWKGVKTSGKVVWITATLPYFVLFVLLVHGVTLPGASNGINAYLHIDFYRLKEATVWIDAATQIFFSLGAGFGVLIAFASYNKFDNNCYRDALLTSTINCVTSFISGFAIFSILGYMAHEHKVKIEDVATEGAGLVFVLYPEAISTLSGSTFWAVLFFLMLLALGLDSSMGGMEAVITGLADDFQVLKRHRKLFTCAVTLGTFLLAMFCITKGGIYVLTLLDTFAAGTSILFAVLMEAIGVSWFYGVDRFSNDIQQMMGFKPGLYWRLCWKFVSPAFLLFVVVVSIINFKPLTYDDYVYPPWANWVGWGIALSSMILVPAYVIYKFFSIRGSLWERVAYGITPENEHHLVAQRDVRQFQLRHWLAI
T1 sequence (P31652 whole entry): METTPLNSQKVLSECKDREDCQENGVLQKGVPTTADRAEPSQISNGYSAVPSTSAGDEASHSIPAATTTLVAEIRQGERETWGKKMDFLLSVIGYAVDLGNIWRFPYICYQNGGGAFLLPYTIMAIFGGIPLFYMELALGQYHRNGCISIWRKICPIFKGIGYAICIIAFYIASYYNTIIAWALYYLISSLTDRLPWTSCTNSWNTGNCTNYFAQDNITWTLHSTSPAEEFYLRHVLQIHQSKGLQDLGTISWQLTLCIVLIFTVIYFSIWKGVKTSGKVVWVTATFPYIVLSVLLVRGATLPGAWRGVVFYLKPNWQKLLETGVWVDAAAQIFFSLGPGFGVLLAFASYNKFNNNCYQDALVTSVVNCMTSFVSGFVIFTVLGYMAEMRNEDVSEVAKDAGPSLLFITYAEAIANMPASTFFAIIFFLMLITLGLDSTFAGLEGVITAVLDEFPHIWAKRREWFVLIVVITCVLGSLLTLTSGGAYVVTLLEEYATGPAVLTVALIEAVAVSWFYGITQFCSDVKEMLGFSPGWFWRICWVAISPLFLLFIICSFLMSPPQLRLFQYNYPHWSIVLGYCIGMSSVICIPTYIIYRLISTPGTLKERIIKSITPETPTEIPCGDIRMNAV
T3 sequence (P23977 whole entry): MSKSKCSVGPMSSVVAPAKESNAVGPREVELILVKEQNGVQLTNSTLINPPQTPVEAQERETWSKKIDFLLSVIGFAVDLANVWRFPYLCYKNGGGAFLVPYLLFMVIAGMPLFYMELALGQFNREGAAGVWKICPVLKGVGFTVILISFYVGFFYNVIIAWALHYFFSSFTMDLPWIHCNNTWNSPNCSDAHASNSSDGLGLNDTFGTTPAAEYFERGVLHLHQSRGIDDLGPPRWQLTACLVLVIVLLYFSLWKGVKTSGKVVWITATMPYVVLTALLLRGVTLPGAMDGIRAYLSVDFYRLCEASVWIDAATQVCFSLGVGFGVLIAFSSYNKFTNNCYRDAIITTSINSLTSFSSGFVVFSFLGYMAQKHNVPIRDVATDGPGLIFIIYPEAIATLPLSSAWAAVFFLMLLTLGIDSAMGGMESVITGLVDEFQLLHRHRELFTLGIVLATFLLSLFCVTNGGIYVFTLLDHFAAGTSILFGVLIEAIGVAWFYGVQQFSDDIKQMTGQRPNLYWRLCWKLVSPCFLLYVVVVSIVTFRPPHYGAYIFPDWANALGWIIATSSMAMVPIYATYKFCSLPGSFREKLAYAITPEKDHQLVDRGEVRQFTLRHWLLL

O=[N+]([O-])c1ccc2nc(N3CC4CCCC(C3)N4)ccc2c1 [1st compound of Method B, 3-(6-Nitro-quinolin-2-yl)-3,9-diaza-bicyclo[3.3.1]nonane]
IC50 [1]: 0.9 nM | IC50 [2, 4]: 1200 nM | IC50 [3]: > 1000 nM

CN1C2CCCC1CN(c1ccc3ccccc3n1)C2 (as salt: fumaric acid salt) [2nd compound of Method A, 9-Methyl-3-quinolin-2-yl-3,9-diaza-bicyclo[3.3.1]nonane]
melting point: 170.2 to 176.9 °C

CN1C2CCCC1CN(c1ccc3ccccc3n1)C2 [2nd compound of Method A, 9-Methyl-3-quinolin-2-yl-3,9-diaza-bicyclo[3.3.1]nonane]
IC50 [1]: 7.7 nM | IC50 [2, 4]: 140 nM | IC50 [3]: > 1000 nM

COc1ccc2nc(N3CC4CCCC(C3)N4C)ccc2c1 [5th compound of Method A, 3-(6-Methoxy-quinolin-2-yl)-9-methyl-3,9-diaza-bicyclo[3.3.1]nonane]
IC50 [1]: 26 nM | IC50 [2]: 100 nM | IC50 [3]: 1800 nM
